Measured values reported in patent US20210387992A1, “POLYMORPH FORM OF A MONOPHOSPHATE HYDRATE SALT OF A KNOWN TETRAHYDROISOQUINOLINE DERIVATIVE” (Pfizer Inc., priority 2019, published 2021).
Structures can show the parent of a compound that is named as a salt.

Assays:
[1] = Solid-state physical stability: PXRD after the DVS run / exposure to high RH; format: physicochemical; conditions: for physical stability / structural change on water sorption (in words): DVS 0-90% RH, PXRD after the run
Protocol: (§1) The hygroscopicity of the products of Reference Example 1 and Example 3 were tested using Dynamic Vapor Sorption (DVS). Surface Measurement Systems Ltd. Dynamic Vapour Sorption Advantage Equipment was used employing a 10% RH change at 25° C. starting at 40% RH and looping from 0% RH to 90% RH and back to 0% RH twice. […] Two full cycles from 0% RH to 90% RH were carried out. The percent mass increase with respect to the sample mass of the first exposure to 0% RH (dry weight) was calculated and is presented in Table 7. […] Also, a decrease in mass is noted at 80% RH consistent with a solid-state change, occurs at these conditions.

[2] = Hygroscopicity by Dynamic Vapor Sorption (DVS); format: physicochemical; conditions: 25° C.
Protocol: as §1

In the case of `Cc1ncnc2c1ccn2[C@@H]1C[C@H](Oc2cc(C(F)F)c(F)c3c2CNCC3)[C@@H](O)[C@H]1O` [Phosphate, (1S,2S,3S,5R)-3-((6-(difluoromethyl)-5-fluoro-1,2,3,4-tetrahydroisoquinolin-8-yl)oxy)-5-(4-methyl-7H-pyrrolo[2,3-d]pyrimidin-7-yl)cyclopentane-1,2-diol monophosphate hydrate], the “physical stability / structural change on water sorption (in words)” value ([1]; listed as Example 3 phosphate salt, monophosphate hydrate) is reported as “no structural changes caused by the water sorption”, the “% Mass-Ref Dry mass” value ([2]; 10% RH, monophosphate hydrate) is reported as 3.4% and the “% Mass-Ref Dry mass” value ([2]; 20% RH, monophosphate hydrate) is reported as 3.7%. For the same molecule, the “% Mass-Ref Dry mass” value ([2]; 30% RH, monophosphate hydrate) was 3.9%, the “% Mass-Ref Dry mass” value ([2]; 40% RH, monophosphate hydrate) was 4.1% and the “% Mass-Ref Dry mass” value ([2]; 50% RH, monophosphate hydrate) was 4.3%. The “% Mass-Ref Dry mass” value ([2]; 60% RH) was 4.5%, the “% Mass-Ref Dry mass” value ([2]; 70% RH, listed as Example 3 phosphate salt, monophosphate hydrate) was 4.57% and the “% Mass-Ref Dry mass” value ([2]; 70% RH, monophosphate hydrate) was 4.6%. The “% Mass-Ref Dry mass” value ([2]; 80% RH, monophosphate hydrate) was 4.7% and the “% Mass-Ref Dry mass” value ([2]; 90% RH, monophosphate hydrate) was 4.8%.
With `Cc1ncnc2c1ccn2[C@@H]1C[C@H](Oc2cc(C(F)F)c(F)c3c2CNCC3)[C@@H](O)[C@H]1O` [di HCl, (1S,2S,3S,5R)-3-((6-(difluoromethyl)-5-fluoro-1,2,3,4-tetrahydroisoquinolin-8-yl)oxy)-5-(4-methyl-7H-pyrrolo[2,3-d]pyrimidin-7-yl)cyclopentane-1,2-diol (di) hydrochloride] the “physical stability / structural change on water sorption (in words)” value ([1]; listed as di-HCL salt, hydrochloride) was “not physically stable”, the “relative humidity at which the amorphous salt crystallizes” value ([1]; PXRD after DVS run, 25° C.) was at least 80 % RH and the “% Mass-Ref Dry mass” value ([2]; 0% RH, relative to mass at first exposure to 0% RH) was 0.0%. For the same molecule, the “hygroscopicity (in words)” value ([2]; 0-90% RH) was “very hygroscopic”, the “% Mass-Ref Dry mass” value ([2]; 10% RH, hydrochloride) was 2.9% and the “% Mass-Ref Dry mass” value ([2]; 20% RH, hydrochloride) was 4.0%. For the same molecule, the “% Mass-Ref Dry mass” value ([2]; 30% RH, hydrochloride) was 4.9%, the “% Mass-Ref Dry mass” value ([2]; 40% RH, hydrochloride) was 6.0% and the “% Mass-Ref Dry mass” value ([2]; 50% RH, hydrochloride) was 7.6%. For the same molecule, the “% Mass-Ref Dry mass” value ([2]; 60% RH, hydrochloride) was 10.4%, the “% Mass-Ref Dry mass” value ([2]; 70% RH, hydrochloride) was 14.7% and the “% Mass-Ref Dry mass” value ([2]; 70% RH, listed as diHCl salt, hydrochloride) was 14.7%. For the same molecule, the “% Mass-Ref Dry mass” value ([2]; 80% RH, hydrochloride) was 12.0% and the “% Mass-Ref Dry mass” value ([2]; 90% RH, hydrochloride) was 12.0%.
